The compounds below were run against T1, human FFAR1 (GPR40) (Homo sapiens, UniProt O14842) (assay: NFAT-RE-based reporter gene activity assay (Dual-Glo luciferase) for GPR40 agonistic activity in co-transfected HEK293T cells). Details: 4-hour treatment.
T1 construct: Flag; expressed in transfected cells; host or cells: HEK293T
Format: cell-based
Method in brief: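 Agonism read as NFAT-RE-driven firefly luciferase over Renilla control (Dual-Glo) after 4 h compound exposure, top concentration 1 µM, 10 half-log steps.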

T1 sequence (O14842 whole entry): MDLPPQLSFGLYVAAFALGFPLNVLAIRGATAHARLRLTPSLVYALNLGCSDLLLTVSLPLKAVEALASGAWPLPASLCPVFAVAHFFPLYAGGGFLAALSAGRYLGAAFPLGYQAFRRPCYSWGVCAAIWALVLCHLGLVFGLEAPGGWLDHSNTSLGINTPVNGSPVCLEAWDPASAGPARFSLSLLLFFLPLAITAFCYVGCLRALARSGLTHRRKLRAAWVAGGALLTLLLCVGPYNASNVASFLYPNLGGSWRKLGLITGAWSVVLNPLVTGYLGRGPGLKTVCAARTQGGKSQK

SMILES	EC50 [nM]
COc1ccc(F)c(N2CCC(c3oc4cc(C(CC(=O)O)C5CC5)ccc4c3C(=O)NC(C)(C)C)CC2)c1 (stereo not drawn) [Compound 305]	100 to 500
COc1ccc(F)c(N2CCC(c3oc4cc(C(CC(=O)O)C5CC5)ccc4c3C(=O)NCC(C)(C)C)CC2)c1 (stereo not drawn) [Compound 306]	100 to 500
COc1ccc(F)c(N2CCC(c3oc4cc(C(CC(=O)O)C5CC5)ccc4c3C(=O)NCCC(C)(C)C)CC2)c1 (stereo not drawn) [Compound 307]	100 to 500
COc1ccc(F)c(N2CCC(c3oc4cc(C(CC(=O)O)C5CC5)ccc4c3C(=O)NC3CC3)CC2)c1 (stereo not drawn) [Compound 308]	> 500
COc1ccc(F)c(N2CCC(c3oc4cc(C(CC(=O)O)C5CC5)ccc4c3C(=O)NCC3CC3)CC2)c1 (stereo not drawn) [Compound 309]	100 to 500
COc1ccc(F)c(N2CCC(c3oc4cc(C(CC(=O)O)C5CC5)ccc4c3C(=O)NCC(C)C)CC2)c1 (stereo not drawn) [Compound 310]	100 to 500
CCNC(=O)c1c(C2CCN(c3cc(OC)ccc3F)CC2)oc2cc(C(CC(=O)O)C3CC3)ccc12 (stereo not drawn) [Compound 312]	100 to 500
COc1ccc(F)c(N2CCC(c3oc4cc(C(CC(=O)O)C5CC5)ccc4c3C(=O)Nc3ccccc3)CC2)c1 (stereo not drawn) [Compound 314]	100 to 500
COc1ccc(F)c(N2CCC(c3oc4cc(C(CC(=O)O)C5CC5)ccc4c3C(=O)Nc3ccc(C(C)(C)C)cc3)CC2)c1 (stereo not drawn) [Compound 315]	100 to 500
COc1ccc(F)c(N2CCC(c3oc4cc(C(CC(=O)O)C5CC5)ccc4c3C(=O)Nc3cccc(C(C)(C)C)c3)CC2)c1 (stereo not drawn) [Compound 316]	100 to 500
COc1ccc(F)c(N2CCC(c3oc4cc(C(CC(=O)O)C5CC5)ccc4c3C(=O)Nc3ccc(F)cc3)CC2)c1 (stereo not drawn) [Compound 317]	100 to 500
COc1ccc(F)c(N2CCC(c3oc4cc(C(CC(=O)O)C5CC5)ccc4c3C(=O)Nc3ccccc3C)CC2)c1 (stereo not drawn) [Compound 319]	100 to 500
COc1ccc(F)c(N2CCC(c3oc4cc(C(CC(=O)O)C5CC5)ccc4c3C(=O)Nc3cccc(C)c3)CC2)c1 (stereo not drawn) [Compound 320]	10 to 100
COc1ccc(F)c(N2CCC(c3oc4cc(C(CC(=O)O)C5CC5)ccc4c3C(=O)Nc3ccc(C)cc3)CC2)c1 (stereo not drawn) [Compound 321]	100 to 500
COc1cccc(N2CCC(c3oc4cc([C@@H](CC(=O)O)C5CC5)ccc4c3C(=O)Nc3ccccc3Cl)CC2)c1F [Compound 322]	≤ 10
COc1cccc(N2CCC(c3oc4cc([C@@H](CC(=O)O)C5CC5)ccc4c3C(=O)Nc3ccccc3F)CC2)c1F [Compound 323]	≤ 10
COc1cccc(N2CCC(c3oc4cc([C@@H](CC(=O)O)C5CC5)ccc4c3C(=O)Nc3ccccc3C)CC2)c1F [Compound 324]	≤ 10
COc1cccc(N2CCC(c3oc4cc([C@@H](CC(=O)O)C5CC5)ccc4c3C(=O)Nc3cccc(C)c3)CC2)c1F [Compound 325]	100 to 500
CCC(c1ccccc1OC)N1CCC(c2oc3cc(C(CC(=O)O)C4CC4)ccc3c2C(=O)Nc2ccccc2F)CC1 (stereo not drawn) [Compound 326]	100 to 500
CC(c1ccccc1OC(F)(F)F)N1CCC(c2oc3cc(C(CC(=O)O)C4CC4)ccc3c2C(=O)Nc2ccccc2F)CC1 (stereo not drawn) [Compound 327]	100 to 500
COc1ccccc1C(C)N1CCC(c2oc3cc(C(CC(=O)O)C4CC4)ccc3c2C(=O)Nc2ccccc2F)CC1 (stereo not drawn) [Compound 328]	> 500
Cc1ccccc1NC(=O)c1c(C2CCN(c3ccc4c(c3)OCO4)CC2)oc2cc([C@@H](CC(=O)O)C3CC3)ccc12 [Compound 330]	10 to 100
O=C(O)C[C@H](c1ccc2c(C(=O)Nc3ccccc3F)c(C3CCN(c4ccc5c(c4)OCO5)CC3)oc2c1)C1CC1 [Compound 331]	100 to 500
Cc1ccc(Cl)c(NC(=O)c2c(C3CCN(c4ccc5c(c4)OCO5)CC3)oc3cc([C@@H](CC(=O)O)C4CC4)ccc23)c1 [Compound 332]	≤ 10

Same assay, conditions: 4-hour treatment, class symbols

SMILES	Efficacy (%)
COc1ccc(F)c(N2CCC(c3oc4cc(C(CC(=O)O)C5CC5)ccc4c3C(=O)NC(C)(C)C)CC2)c1 (stereo not drawn) [Compound 305]	†† (150 ≥ Efficacy (%) > 100)
COc1ccc(F)c(N2CCC(c3oc4cc(C(CC(=O)O)C5CC5)ccc4c3C(=O)NCC(C)(C)C)CC2)c1 (stereo not drawn) [Compound 306]	†† (150 ≥ Efficacy (%) > 100)
COc1ccc(F)c(N2CCC(c3oc4cc(C(CC(=O)O)C5CC5)ccc4c3C(=O)NCCC(C)(C)C)CC2)c1 (stereo not drawn) [Compound 307]	†† (150 ≥ Efficacy (%) > 100)
COc1ccc(F)c(N2CCC(c3oc4cc(C(CC(=O)O)C5CC5)ccc4c3C(=O)NC3CC3)CC2)c1 (stereo not drawn) [Compound 308]	†† (150 ≥ Efficacy (%) > 100)
COc1ccc(F)c(N2CCC(c3oc4cc(C(CC(=O)O)C5CC5)ccc4c3C(=O)NCC3CC3)CC2)c1 (stereo not drawn) [Compound 309]	†† (150 ≥ Efficacy (%) > 100)
COc1ccc(F)c(N2CCC(c3oc4cc(C(CC(=O)O)C5CC5)ccc4c3C(=O)NCC(C)C)CC2)c1 (stereo not drawn) [Compound 310]	†† (150 ≥ Efficacy (%) > 100)
CCNC(=O)c1c(C2CCN(c3cc(OC)ccc3F)CC2)oc2cc(C(CC(=O)O)C3CC3)ccc12 (stereo not drawn) [Compound 312]	† (100 ≥ Efficacy (%) > 50)
COc1ccc(F)c(N2CCC(c3oc4cc(C(CC(=O)O)C5CC5)ccc4c3C(=O)Nc3ccccc3)CC2)c1 (stereo not drawn) [Compound 314]	†† (150 ≥ Efficacy (%) > 100)
COc1ccc(F)c(N2CCC(c3oc4cc(C(CC(=O)O)C5CC5)ccc4c3C(=O)Nc3ccc(C(C)(C)C)cc3)CC2)c1 (stereo not drawn) [Compound 315]	†† (150 ≥ Efficacy (%) > 100)
COc1ccc(F)c(N2CCC(c3oc4cc(C(CC(=O)O)C5CC5)ccc4c3C(=O)Nc3cccc(C(C)(C)C)c3)CC2)c1 (stereo not drawn) [Compound 316]	†† (150 ≥ Efficacy (%) > 100)
COc1ccc(F)c(N2CCC(c3oc4cc(C(CC(=O)O)C5CC5)ccc4c3C(=O)Nc3ccc(F)cc3)CC2)c1 (stereo not drawn) [Compound 317]	† (100 ≥ Efficacy (%) > 50)
COc1ccc(F)c(N2CCC(c3oc4cc(C(CC(=O)O)C5CC5)ccc4c3C(=O)Nc3ccccc3C)CC2)c1 (stereo not drawn) [Compound 319]	†† (150 ≥ Efficacy (%) > 100)
COc1ccc(F)c(N2CCC(c3oc4cc(C(CC(=O)O)C5CC5)ccc4c3C(=O)Nc3cccc(C)c3)CC2)c1 (stereo not drawn) [Compound 320]	†† (150 ≥ Efficacy (%) > 100)
COc1ccc(F)c(N2CCC(c3oc4cc(C(CC(=O)O)C5CC5)ccc4c3C(=O)Nc3ccc(C)cc3)CC2)c1 (stereo not drawn) [Compound 321]	†† (150 ≥ Efficacy (%) > 100)
COc1cccc(N2CCC(c3oc4cc([C@@H](CC(=O)O)C5CC5)ccc4c3C(=O)Nc3ccccc3Cl)CC2)c1F [Compound 322]	†† (150 ≥ Efficacy (%) > 100)
COc1cccc(N2CCC(c3oc4cc([C@@H](CC(=O)O)C5CC5)ccc4c3C(=O)Nc3ccccc3F)CC2)c1F [Compound 323]	†† (150 ≥ Efficacy (%) > 100)
COc1cccc(N2CCC(c3oc4cc([C@@H](CC(=O)O)C5CC5)ccc4c3C(=O)Nc3ccccc3C)CC2)c1F [Compound 324]	†† (150 ≥ Efficacy (%) > 100)
COc1cccc(N2CCC(c3oc4cc([C@@H](CC(=O)O)C5CC5)ccc4c3C(=O)Nc3cccc(C)c3)CC2)c1F [Compound 325]	†† (150 ≥ Efficacy (%) > 100)
CCC(c1ccccc1OC)N1CCC(c2oc3cc(C(CC(=O)O)C4CC4)ccc3c2C(=O)Nc2ccccc2F)CC1 (stereo not drawn) [Compound 326]	†† (150 ≥ Efficacy (%) > 100)
CC(c1ccccc1OC(F)(F)F)N1CCC(c2oc3cc(C(CC(=O)O)C4CC4)ccc3c2C(=O)Nc2ccccc2F)CC1 (stereo not drawn) [Compound 327]	†† (150 ≥ Efficacy (%) > 100)
COc1ccccc1C(C)N1CCC(c2oc3cc(C(CC(=O)O)C4CC4)ccc3c2C(=O)Nc2ccccc2F)CC1 (stereo not drawn) [Compound 328]	†† (150 ≥ Efficacy (%) > 100)
Cc1ccccc1NC(=O)c1c(C2CCN(c3ccc4c(c3)OCO4)CC2)oc2cc([C@@H](CC(=O)O)C3CC3)ccc12 [Compound 330]	†† (150 ≥ Efficacy (%) > 100)
O=C(O)C[C@H](c1ccc2c(C(=O)Nc3ccccc3F)c(C3CCN(c4ccc5c(c4)OCO5)CC3)oc2c1)C1CC1 [Compound 331]	†† (150 ≥ Efficacy (%) > 100)
Cc1ccc(Cl)c(NC(=O)c2c(C3CCN(c4ccc5c(c4)OCO5)CC3)oc3cc([C@@H](CC(=O)O)C4CC4)ccc23)c1 [Compound 332]	†† (150 ≥ Efficacy (%) > 100)
